Laboratory results from patent US12396458B2, “Fused ring substituted aromatic compound and preparation method therefor, herbicidal composition, and use thereof” (Qingdao Kingagroot Chemical Compound Co., Ltd., priority 2020, dated 2025).

Assays:
Assay in all cases: Weeding effect in post-emergence stage (greenhouse pot test)
Format in all cases: in vivo
Capsella bursa-pastoris = conditions: dose 15 g a.i./ha, 3 weeks after application, fresh weight control rate
In short: (§1)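 Greenhouse pot plants sprayed at 2-3 leaf stage (2 weeks after sowing) with compound in acetone/Tween 80 plus 1.5 L/ha methyl oleate EC, at 500, 250, 125, 60, 15, 7.5 g a.i./ha. Fresh-weight growth control scored 3 weeks later on a 0-5 scale (level 5 >85%, level 0 <5%); three replicates averaged.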

Beckmannia syzigachne = conditions: dose 15 g a.i./ha, 3 weeks after application, fresh weight control rate
In short: as §1

Setaria viridis = conditions: dose 7.5 g a.i./ha, fresh weight control rate
In short: as §1

Alopecurus japonicus = conditions: dose 15 g a.i./ha, 3 weeks after application, fresh weight control rate
In short: as §1

Rorippa indica = conditions: dose 7.5 g a.i./ha, fresh weight control rate
In short: as §1

Eleusine indica = conditions: dose 7.5 g a.i./ha, fresh weight control rate
In short: as §1

Digitaria sanguinalis = conditions: dose 7.5 g a.i./ha, fresh weight control rate
In short: as §1

Conyza japonica = conditions: fresh weight control rate
In short: as §1

[1] = post-emergence control test, dose 7.5 g a.i./ha
[2] = post-emergence, dose 15 g a.i./ha, 3 weeks after application

## CCOC(=O)C12CCCC1C(c1cc(-n3c(=O)n(C)c(=S)n(C)c3=O)c(F)cc1Cl)=NO2 (stereo not drawn) [Compound 3]
Capsella bursa-pastoris
  Activity level (growth control rate), Capsella bursa-pastoris: 5 (Level 5: growth control rate is above 85%)
Beckmannia syzigachne
  Activity level (growth control rate), Beckmannia syzigachne: 5 (Level 5: growth control rate is above 85%)
Setaria viridis
  Activity level (growth control rate), Setaria viridis: 4 (Level 4: growth control rate is greater than or equal to 60% and less than 85%)
Alopecurus japonicus
  Activity level (growth control rate), Alopecurus japonicus: 5 (Level 5: growth control rate is above 85%)
Rorippa indica
  Activity level (growth control rate), Rorippa indica: 5 (Level 5: growth control rate is above 85%)
Eleusine indica
  Activity level (growth control rate), Eleusine indica: 4 (Level 4: growth control rate is greater than or equal to 60% and less than 85%)
Digitaria sanguinalis
  Activity level (growth control rate), Digitaria sanguinalis: 4 (Level 4: growth control rate is greater than or equal to 60% and less than 85%)
Conyza japonica; [1]
  Activity level (growth control rate), Conyza japonica: 3 (Level 3: growth control rate is greater than or equal to 40% and less than 60%)
Conyza japonica; [2]
  Activity level (growth control rate), Conyza japonica: 4 (Level 4: growth control rate is greater than or equal to 60% and less than 85%)

## COC(=O)C12CCCC1C(c1cc(-n3c(=O)cc(C(F)(F)F)n(C)c3=O)c(F)cc1Cl)=NO2 (stereo not drawn) [Compound 209]
Capsella bursa-pastoris
  Activity level (growth control rate), Capsella bursa-pastoris: 5 (Level 5: growth control rate is above 85%)
Beckmannia syzigachne
  Activity level (growth control rate), Beckmannia syzigachne: 5 (Level 5: growth control rate is above 85%)
Setaria viridis
  Activity level (growth control rate), Setaria viridis: 5 (Level 5: growth control rate is above 85%)
Alopecurus japonicus
  Activity level (growth control rate), Alopecurus japonicus: 5 (Level 5: growth control rate is above 85%)
Rorippa indica
  Activity level (growth control rate), Rorippa indica: 5 (Level 5: growth control rate is above 85%)
Eleusine indica
  Activity level (growth control rate), Eleusine indica: 5 (Level 5: growth control rate is above 85%)
Digitaria sanguinalis
  Activity level (growth control rate), Digitaria sanguinalis: 5 (Level 5: growth control rate is above 85%)
Conyza japonica; [1]
  Activity level (growth control rate), Conyza japonica: 4 (Level 4: growth control rate is greater than or equal to 60% and less than 85%)
Conyza japonica; [2]
  Activity level (growth control rate), Conyza japonica: 5 (Level 5: growth control rate is above 85%)
